Measurements: patent US7276523B2, “Aminopyridine derivatives as estrogen receptor modulators” (SmithKline Beecham Corporation, priority 2001, dated 2007)

Legend:
[1] = target: T1, GST-hERα (ligand binding domain) (Homo sapiens, UniProt P03372); test: Competition binding assay (SPA, [3H]estradiol), ER alpha; details: read-out: Avg. ER alpha Ki (n)
T1 construct: made in house; host or cells: E. coli BL21(DE3)pLysS
T1 sequence (P03372 311-547 limits assumed): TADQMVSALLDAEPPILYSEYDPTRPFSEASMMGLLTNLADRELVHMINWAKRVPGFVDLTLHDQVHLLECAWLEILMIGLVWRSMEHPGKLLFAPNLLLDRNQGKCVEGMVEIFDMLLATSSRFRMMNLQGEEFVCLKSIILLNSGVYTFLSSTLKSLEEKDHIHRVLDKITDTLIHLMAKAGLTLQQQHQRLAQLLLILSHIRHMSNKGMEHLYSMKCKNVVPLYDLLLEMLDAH
Procedure: The ligand binding domain of both ERα and ERβ were subcloned into pGEX-2T vector, which had been modified to contain KpnI and BamHI restriction, sites in the multiple cloning region. GST-hERα and GST-hERβ proteins were made by transforming BL21(DE3)pLYS S competent cells with the appropriate expression plasmid. […] The cells were collected by centrifugation and resuspended in lysis buffer (50 mM Tris pH 7.9; 250 mM KCl; 1% Triton X-100; 10 mM DTT; 1 mM PMSF). The lysate was then placed on dry ice until completely frozen. The frozen lysate was thawed and centrifuged 20 min at 4° C. at 80 K rpm in a TLA 100.2 rotor in a Beckman TL-100 ultracentrifuge. The supernatant was retained and glycerol was added to a final concentration of 10%. The protein content of the supernatant was quantitated using the BioRad Protein Assay Reagent. The protein was then stored at −80° C. until used in the binding assay.
Polylysine coated Yttrium Silicate SPA beads (Amersham #RPNQ 0010) was resuspended in assay buffer [10 mM potassium phosphate buffer pH 7.0 containing 2 mM EDTA, 50 mM NaCl, 1 mM DTT, 2 mM CHAPS, 10% glycerol] to a concentration of 1 g/60 ml. 30 ul (0.5 mg) of the SPA beads was then added to each well of a Packard OptiPlate (Packard 6005190, Packard Instruments, Meriden, Conn.). […] The plates were shaken vigorously for two hours then counted on a Packard TopCount using the protocol for counting tritium yttrium silicate SPA beads. Data analysis was done by standard methods. % Bound was calculated for each concentration of each test compound using the equation % Bound=100*((Test−NS)/(T−NS)). % Bound was plotted vs concentration and curve fitting was accomplished using non-linear regression.
Saturation binding assays were run similarly to competition assays.

[2] = target: T2, GST-hERβ (ligand binding domain) (Homo sapiens, UniProt Q92731); test: Competition binding assay (SPA, [3H]estradiol), ER beta
T2 construct: made in house; host or cells: E. coli BL21(DE3)pLysS
T2 sequence (Q92731 264-498 limits assumed): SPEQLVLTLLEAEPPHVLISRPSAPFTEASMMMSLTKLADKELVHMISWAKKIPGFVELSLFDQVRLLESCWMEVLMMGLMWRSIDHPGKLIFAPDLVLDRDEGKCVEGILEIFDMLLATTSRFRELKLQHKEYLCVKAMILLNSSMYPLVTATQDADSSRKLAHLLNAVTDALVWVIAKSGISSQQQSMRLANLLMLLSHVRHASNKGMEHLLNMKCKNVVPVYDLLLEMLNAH
Procedure: The ligand binding domain of both ERα and ERβ were subcloned into pGEX-2T vector, which had been modified to contain KpnI and BamHI restriction, sites in the multiple cloning region. GST-hERα and GST-hERβ proteins were made by transforming BL21(DE3)pLYS S competent cells with the appropriate expression plasmid. Liquid cultures containing standard Luria-Bertani (LB) broth with 0.1 mg/ml ampicillin and 0.033 mg/ml chloramphenicol were grown at 37° C. to an OD600 of 0.5-1.0 then induced with IPTG for 2-3 hours. The cells were collected by centrifugation and resuspended in lysis buffer (50 mM Tris pH 7.9; 250 mM KCl; 1% Triton X-100; 10 mM DTT; 1 mM PMSF). The lysate was then placed on dry ice until completely frozen. The frozen lysate was thawed and centrifuged 20 min at 4° C. at 80 K rpm in a TLA 100.2 rotor in a Beckman TL-100 ultracentrifuge. The supernatant was retained and glycerol was added to a final concentration of 10%. The protein content of the supernatant was quantitated using the BioRad Protein Assay Reagent. The protein was then stored at −80° C. until used in the binding assay.
Polylysine coated Yttrium Silicate SPA beads (Amersham #RPNQ 0010) was resuspended in assay buffer [10 mM potassium phosphate buffer pH 7.0 containing 2 mM EDTA, 50 mM NaCl, 1 mM DTT, 2 mM CHAPS, 10% glycerol] to a concentration of 1 g/60 ml. 30 ul (0.5 mg) of the SPA beads was then added to each well of a Packard OptiPlate (Packard 6005190, Packard Instruments, Meriden, Conn.). […] [2, 4, 6, 7, 16, 17-3H(N)]-Estradiol was added as a 30 ul aliquot to give a final assay concentration of 1 nM. To give a final volume of 100 ul, either 10 ul of a test compound solution (typically in 10% DMSO as solvent), solvent containing no test compound (to determine total binding, T), or solvent containing 17-b-estradiol at 100 uM (to determine non-specific binding, NS) were finally added to the plate. The plates were shaken vigorously for two hours then counted on a Packard TopCount using the protocol for counting tritium yttrium silicate SPA beads. Data analysis was done by standard methods. % Bound was calculated for each concentration of each test compound using the equation % Bound=100*((Test−NS)/(T−NS)). % Bound was plotted vs concentration and curve fitting was accomplished using non-linear regression.
Saturation binding assays were run similarly to competition assays. […] [2, 4, 6, 7, 16, 17-3H(N)]-Estradiol was added such that the final concentration ranged from 0.1 to 100 nM.

Compound | Ki [1] [µM] | Ki [2] [µM]
CCOCCN(CCOCC)c1cc(-c2ccccc2)cc(-c2ccc(O)cc2C)n1 [Example 32, 4-{6-[bis(2-ethoxyethyl)amino]-4-phenyl-2-pyridinyl}-3-methylphenol] | 2 | 1.17
CCN(Cc1ccncc1)c1cc(-c2ccccc2)cc(-c2ccc(O)cc2C)n1 [Example 28, 4-{6-[ethyl(4-pyridinylmethyl)amino]-4-phenyl-2-pyridinyl}-3-methylphenol] | 0.83 | 1
Cc1cc(O)ccc1-c1cc(-c2ccccc2)cc(N(C)CCC(C)C)n1 [Example 21, 4-{6-[isopentyl(methyl)amino]-4-phenyl-2-pyridinyl}-3-methylphenol] | 0.21 | 0.66
CC(C)CCN(C)c1cc(-c2ccccc2)cc(-c2ccc(O)cc2)n1 [Example 20, 4-{6-[isopentyl(methyl)amino]-4-phenyl-2-pyridinyl}phenol] | 0.62 | 1.26
CCCN(Cc1ccccn1)c1cc(-c2ccccc2)cc(-c2ccc(O)cc2C)n1 [Example 26, 3-methyl-4-{4-phenyl-6-[propyl(2-pyridinylmethyl)amino]-2-pyridinyl}phenol] | 0.07 | 0.33
Cc1cc(O)ccc1-c1cc(-c2ccccc2)cc(N(C)Cc2ccccc2)n1 [Example 15, 4-{6-[benzyl(methyl)amino]-4-phenyl-2-pyridinyl}-3-methylphenol] | 0.38 | 1.12
Cc1cc(O)ccc1-c1cc(-c2ccccc2)cc(N(CCc2ccccc2)Cc2ccccc2)n1 [Example 31, 4-{6-[benzyl(2-phenylethyl)amino]-4-phenyl-2-pyridinyl}-3-methylphenol] | 0.13 | 0.25
Cc1cc(O)ccc1-c1cc(-c2ccccc2)cc(N2CCC(Cc3ccccc3)CC2)n1 [Example 29, 4-[6-(4-benzyl-1-piperidinyl)-4-phenyl-2-pyridinyl]-3-methylphenol] | 0.02 | 0.11
CCCCN(C)c1cc(-c2ccccc2)cc(-c2cccc(O)c2)n1 [Example 12, 3-{6-[butyl(methyl)amino]-4-phenyl-2-pyridinyl}phenol] | 0.66 | 0.79
Cc1cc(O)ccc1-c1cc(-c2ccccc2)cc(N(C)Cc2cccc3ccccc23)n1 [Example 18, 3-methyl-4-{6-[methyl(1-naphthylmethyl)amino]-4-phenyl-2-pyridinyl}phenol] | 0.45 | 1.41
Cc1cc(O)ccc1-c1cc(-c2ccccc2)cc(N(C)CCc2ccccc2)n1 [Example 6, 3-methyl-4-{6-[methyl(2-phenylethyl)amino]-4-phenyl-2-pyridinyl}phenol] | 0.16 | 0.68
Cc1cc(O)ccc1-c1cc(-c2ccccc2)cc(N(C)CCc2ccccn2)n1 [Example 23, 3-methyl-4-(6-{methyl[2-(2-pyridinyl)ethyl]amino}-4-phenyl-2-pyridinyl)phenol] | 1.26 | > 3
